Target: Isoform 2 of Hepatocyte growth factor receptor (2) (Homo sapiens, UniProt P08581)
Test: c-Met Z-LYTE Assay
Settings: pH 7; 25 °C
Description: The c-Met kinase activity of five target compounds and three positive compounds were evaluated using standard Z-LYTE Assays (fluorescence resonance energy transfer, FRET). The test compounds or reference controls were dissolved indimethyl sulfoxide (DMSO) as stock solution. […] 5 µL of the detectionreagents A (Invitrogen) was added at final concentrations of 64-fold dilution. The plates were incubated at room temperature for 60 min and then read in the Envision plate reader (PerkinElmer).

Isoform 2 of Hepatocyte growth factor receptor (2), sequence (P08581 as listed by the source): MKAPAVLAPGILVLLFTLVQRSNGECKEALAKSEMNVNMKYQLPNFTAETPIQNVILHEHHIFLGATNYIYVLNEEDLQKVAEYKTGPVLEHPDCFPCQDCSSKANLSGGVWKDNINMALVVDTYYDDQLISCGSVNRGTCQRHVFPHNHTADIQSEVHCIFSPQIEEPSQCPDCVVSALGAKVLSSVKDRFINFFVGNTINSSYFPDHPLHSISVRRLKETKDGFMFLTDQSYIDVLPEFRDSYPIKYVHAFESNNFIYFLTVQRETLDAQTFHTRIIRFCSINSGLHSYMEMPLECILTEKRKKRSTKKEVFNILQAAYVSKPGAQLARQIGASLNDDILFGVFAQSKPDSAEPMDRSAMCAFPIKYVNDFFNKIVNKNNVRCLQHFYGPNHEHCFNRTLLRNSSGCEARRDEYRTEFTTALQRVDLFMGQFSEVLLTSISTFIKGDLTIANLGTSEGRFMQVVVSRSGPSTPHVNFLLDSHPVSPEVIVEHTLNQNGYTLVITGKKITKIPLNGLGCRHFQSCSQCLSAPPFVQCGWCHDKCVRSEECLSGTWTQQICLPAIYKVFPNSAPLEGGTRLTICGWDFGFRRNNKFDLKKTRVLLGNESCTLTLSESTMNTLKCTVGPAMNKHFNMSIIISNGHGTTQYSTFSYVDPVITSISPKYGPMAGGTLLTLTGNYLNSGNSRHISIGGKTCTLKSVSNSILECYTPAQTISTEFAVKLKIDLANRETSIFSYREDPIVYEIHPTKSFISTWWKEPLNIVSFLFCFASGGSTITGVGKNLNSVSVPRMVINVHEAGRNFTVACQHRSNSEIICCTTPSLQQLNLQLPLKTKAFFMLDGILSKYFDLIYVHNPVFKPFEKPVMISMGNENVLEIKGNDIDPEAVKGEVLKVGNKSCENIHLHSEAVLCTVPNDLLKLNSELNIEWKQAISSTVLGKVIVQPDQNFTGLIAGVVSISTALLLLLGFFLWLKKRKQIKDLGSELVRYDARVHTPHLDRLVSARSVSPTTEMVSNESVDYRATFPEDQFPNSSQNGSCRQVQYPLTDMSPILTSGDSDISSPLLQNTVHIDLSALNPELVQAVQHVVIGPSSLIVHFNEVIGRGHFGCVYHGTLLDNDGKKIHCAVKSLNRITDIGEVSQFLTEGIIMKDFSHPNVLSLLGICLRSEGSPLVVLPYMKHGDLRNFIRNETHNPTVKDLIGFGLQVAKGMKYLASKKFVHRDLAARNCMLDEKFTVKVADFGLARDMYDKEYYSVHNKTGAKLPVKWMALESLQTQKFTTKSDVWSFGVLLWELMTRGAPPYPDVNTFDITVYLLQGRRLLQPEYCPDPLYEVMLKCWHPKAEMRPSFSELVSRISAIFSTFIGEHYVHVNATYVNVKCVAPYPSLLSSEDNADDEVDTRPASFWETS

SMILES: Fc1ccc(Cl)c(C2(c3n[nH]c4ncc(-c5cnn(C6CCNCC6)c5)cc34)CC2)c1Cl [3-(1-(2,6-dichloro-3-fluorophenyl)cyclopropyl)-5-(1-(piperidin-4-yl)-1H-pyrazol-4-yl)-1H-pyrazolo[3,4-b]pyridine (10)]
- IC50: 47.4 nM

SMILES: Cc1[nH]c2ncc(-c3cnn(C4CCNCC4)c3)cc2c1C(C)c1c(Cl)ccc(F)c1Cl (centres undefined) [3-(1-(2,6-dichloro-3-fluorophenyl)ethyl)-2-methyl-5-(1-(piperidin-4-yl)-1H-pyrazol-4-yl)-1H-pyrrolo[2,3-b]pyridine (6)]
- IC50: 286 nM

SMILES: O=C(NCc1ccc(F)cc1)Nc1ccc(Oc2ccnc3[nH]ccc23)c(F)c1 [3-(3-fluoro-4-{1H-pyrrolo[2,3-b]pyridin-4-yloxy}phenyl)-1-[(4-fluorophenyl)methyl]urea (2)]
- IC50: 11 nM

SMILES: O=C(NCc1ccc(F)cc1)Nc1ccc(Oc2ccnc3[nH]c(-c4cccnc4)cc23)c(F)c1 [3-(3-fluoro-4-{[2-(pyridin-3-yl)-1H-pyrrolo[2,3-b]pyridin-4-yl]oxy}phenyl)-1-[(4-fluorophenyl)methyl]urea (2a)]
- IC50: 2 nM

SMILES: Fc1ccc(Cl)c(Sc2n[nH]c3ncc(-c4cnn(C5CCNCC5)c4)cc23)c1Cl [3-((2,6-dichloro-3-fluorophenyl)thio)-5-(1-(piperidin-4-yl)-1H-pyrazol-4-yl)-1H-pyrazolo[3,4-b]pyridine (9)]
- IC50: 22.8 nM

SMILES: CC(Sc1cc(-c2cnn(C3CCNCC3)c2)cnc1N)c1c(Cl)ccc(F)c1Cl (centres undefined) [3-{[1-(2,6-dichloro-3-fluorophenyl)ethyl]sulfanyl}-5-[1-(piperidin-4-yl)-1H-pyrazol-4-yl]pyridin-2-amine (11b)]
- IC50: 51.2 nM

SMILES: CC(c1c(Cl)ccc(F)c1Cl)c1c(Cl)[nH]c2ncc(-c3cnn(C4CCNCC4)c3)cc12 (centres undefined) [4-(4-{2-chloro-3-[1-(2,6-dichloro-3-fluorophenyl)ethyl]-1H-pyrrolo[2,3-b]pyridin-5-yl}-1H-pyrazol-1-yl)piperidine (7)]
- IC50: 982 nM

SMILES: CC(c1c(Cl)ccc(F)c1Cl)c1c[nH]c2ncc(-c3cnn(C4CCNCC4)c3)cc12 (centres undefined) [4-(4-{3-[1-(2,6-dichloro-3-fluorophenyl)ethyl]-1H-pyrrolo[2,3-b]pyridin-5-yl}-1H-pyrazol-1-yl)piperidine (1)]
- IC50: < 100 nM

SMILES: c1ccc(-c2cnc3nnc(C4(c5ccc6ncccc6c5)CC4)n3n2)cc1 [6-(1-{6-phenyl-[1,2,4]triazolo[4,3-b][1,2,4]triazin-3-yl}cyclopropyl)quinoline (5)]
- IC50: 13 nM

— BindingDB's records for doi:10.1016/j.bioorg.2016.02.009 (Tianjin University of Science and Technology, 2016)
